{"source": "patent US9126999B2", "about": "“Tetrahydropyrazolopyrimidine compounds” (EISAI R&D MANAGEMENT CO., LTD., priority 2012, dated 2015)", "target": "T1, Human TLR9 (Homo sapiens, UniProt Q9NR96)", "T1 sequence (Q9NR96 26-1032)": "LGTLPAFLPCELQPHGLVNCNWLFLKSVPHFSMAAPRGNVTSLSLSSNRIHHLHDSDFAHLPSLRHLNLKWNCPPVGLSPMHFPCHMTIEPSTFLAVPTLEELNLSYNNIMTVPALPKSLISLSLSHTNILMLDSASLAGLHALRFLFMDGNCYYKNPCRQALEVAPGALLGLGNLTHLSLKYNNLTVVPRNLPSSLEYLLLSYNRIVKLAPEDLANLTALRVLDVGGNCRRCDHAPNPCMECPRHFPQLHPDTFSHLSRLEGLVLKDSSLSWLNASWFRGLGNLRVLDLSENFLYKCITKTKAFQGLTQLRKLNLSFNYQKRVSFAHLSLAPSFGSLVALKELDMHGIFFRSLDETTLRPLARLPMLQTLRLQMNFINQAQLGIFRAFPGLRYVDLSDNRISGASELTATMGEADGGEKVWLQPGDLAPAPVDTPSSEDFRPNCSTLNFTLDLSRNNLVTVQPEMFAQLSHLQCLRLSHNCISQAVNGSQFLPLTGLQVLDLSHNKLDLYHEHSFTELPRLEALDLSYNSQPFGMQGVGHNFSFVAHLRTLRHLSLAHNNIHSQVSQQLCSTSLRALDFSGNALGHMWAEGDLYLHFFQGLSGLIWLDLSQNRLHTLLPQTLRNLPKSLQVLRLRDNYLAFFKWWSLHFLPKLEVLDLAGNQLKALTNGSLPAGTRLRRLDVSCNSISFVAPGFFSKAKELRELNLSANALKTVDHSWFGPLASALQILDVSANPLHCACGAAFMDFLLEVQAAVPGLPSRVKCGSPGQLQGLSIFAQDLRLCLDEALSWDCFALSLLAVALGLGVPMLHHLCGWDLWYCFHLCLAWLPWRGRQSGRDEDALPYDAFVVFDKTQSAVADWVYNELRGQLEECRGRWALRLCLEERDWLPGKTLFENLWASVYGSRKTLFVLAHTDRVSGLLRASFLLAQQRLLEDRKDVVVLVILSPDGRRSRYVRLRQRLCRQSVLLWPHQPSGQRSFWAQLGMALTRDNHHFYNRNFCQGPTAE", "assay": "HEK-293 NF-kappaB luciferase reporter assay, CpG-ODN stimulus", "format": "cell-based", "set-up": "engineered to stably and individually express human TLR4, TLR7 or TLR9 full-length ORF cDNAs; expressed in transfected cells; host or cells: HEK-293 (ATCC) with ELAM-1 NF-kappaB luciferase reporter", "conditions": "ligand CpG-ODN, analyte NFkB-luciferase", "description": "In vitro pharmacology: HEK-293 cells (ATCC) were engineered to stably express a NF-kappaB transcription factor inducible E-selectin (ELAM-1) luciferase reporter derived from the plasmid pGL3 (Promega) containing base pairs −2241 bp to −254 bp from the promoter of the human E-selectin gene (Accession No. NM_000450). These cells were then subsequently engineered to stably and individually express human TLR4, TLR7 or TLR9 full-length ORF cDNAs. Human TLR4 cDNA (Accession No. NM_138554) was cloned into pcDNA 3.0 expression vector (Invitrogen). TLR4 transfected cells were also engineered to express human MD-2 co-receptor [MD-2 cDNA (Accession No. NM_015364) was cloned into the pEF-BOS vector] and were supplemented with 10 nM soluble CD14 (R&D Systems) in the media to optimize LPS responsiveness. Human TLR9 cDNA (Accession No. NM_017442) was cloned into the pBluescript II KS vector (Agilent). Human TLR7 cDNA (Accession No. NM_016562) was obtained from OriGene. HEK-293 cells stably expressing human TLR8 (Accession No. NM_138636) or mouse TLR7 (Accession No. NM_133211) were purchased from InvivoGen and were then stably transfected with pNiFty2(NF-kappaB)-luciferase reporter plasmid (InvivoGen). […]"}
{"smiles": "COc1ccc([C@@H]2C[C@H](C(F)(F)F)n3nc(-c4ccc(C(=O)N5CCNCC5)cc4)cc3N2)cc1OC", "note": "[ER-892887, (4-((5S,7R)-5-(3,4-dimethoxyphenyl)-7-(trifluoromethyl)-4,5,6,7-tetrahydropyrazolo[1,5-a]pyrimidin-2-yl)phenyl)(piperazin-1-yl)methanone]", "values": [{"measurement": "IC50", "result": "> 10", "unit": "µM"}]}
